Test results reported in patent US20150164895A1, “DETERMINING SENSITIVITY OF CELLS TO B-RAF INHIBITOR TREATMENT BY DETECTING KRAS MUTATION AND RTK EXPRESSION LEVELS” (GENENTECH, INC., priority 2009, published 2015).
“And” between values parts separate entries of the source, which are not always exact repeats. Identical values can stand only once.

Legend:
[1] = test system: Venus-C-RAF / CFP-K-RAS in HEK293T cells; assay: C-RAF plasma membrane translocation, live cell confocal imaging; type: cell-based; parameters: dose or concentration left out as unconfirmed
Description: Aliquots of the membrane and cytosolic fractions were immunoblotted with the indicated antibodies. (B) HEK293T cells were transiently transfected with Venus-C-RAF (green), CFP-K-RAS (red) and mCherry-H2B (blue).

[2] = test system: pERK in BRAF V600E cells expressing EGFR; assay: pERK MSD assay, basal and EGF-stimulated; type: cell-based; settings: serum starved, -EGF or +EGF
Procedure: (A) Table of genotype and EGFR levels among lines tested. (B) Measurement of basal and stimulated pERK levels: cells were treated with […] compound in serum free media for 1 hour. For stimulation 20 ng/ml EGF was added for 5 min before cells were lysed. Lysates were transferred to an MSD plate where phospho- and total ERK levels were measured. (C) pERK IC50 data are plotted for the two Raf inhibitors (CHR-265, 1-methyl-5-[[2-[5-(trifluoromethyl)-1H-imidazol-2-yl]-4-pyridinyl]oxy]-N-[4-(trifluoromethyl)phenyl]-1H-Benzimidazol-2-amine and GDC-0879) under basal and EGF-stimulated conditions.
FIG. 29 summarizes certain RAF inhibitor (GDC-0879, PLX-4720 and “Raf inh a” which is 2,6-difluoro-N-(3-methoxy-1H-pyrazolo[3,4-b]pyridin-5-yl)-3-(propylsulfonamido)benzamide) potencies for blocking cellular pERK induction in response to EGF stimulation.

[3] = test system: ERK1/2 phosphorylation in BRAF^V600E primary human xenograft tumors; assay: Pharmacodynamic ERK1/2 phosphorylation immunoblot in primary human xenograft tumors; type: in vivo, mice; settings: 100 mg/kg, 1 or 8 h following the last dose (days 21-24)
Procedure: In time course pharmacodynamic studies, mice were treated with 100 mg/kg GDC-0879 and scarified at 1 or 8 h following the last dose (days 21-24). Immunoblots of phosphorylated and total ERK1/2 are shown. […] Total ERK1/2 expression was examined in all samples as a loading control.

[4] = test system: LXFA 983/9N4 (Lung, adeno); assay: Oncotest Exp H331: growth of LXFA 983 lung tumor xenograft after dosing with B-RAF inhibitor; type: in vivo, mice; settings: H331-2, 100 mg/kg/day, Days 0-21; for Absolute body weight, Median / Relative body weight, Median / Absolute tumor volume: (a*b*b)/2, Median / Relative tumor volume, Median: group median; for Absolute body weight, Median / Relative body weight, Median: n 10; for Absolute tumor volume: (a*b*b)/2, Median / Relative tumor volume, Median: n 15; for Relative tumor volume / Absolute tumor volume: (a*b*b)/2: individual tumors
Description: FIGS. 10-18 depict growth in lung tumor xenografts after dosing with GDC-0879.
The data are shown below, and in FIGS. 10-14 for Experiment H331 and FIGS. 15-18 for Experiment H327.

[5] = study day 3, individual animals, listed as G-026887
[6] = study day 3, listed as G-026887
[7] = study day 7, individual animals, listed as G-026887
[8] = study day 7, listed as G-026887
[9] = study day 10, individual animals, listed as G-026887
[10] = study day 10, listed as G-026887
[11] = study day 14, individual animals, listed as G-026887
[12] = study day 14, listed as G-026887
[13] = study day 17, individual animals, listed as G-026887
[14] = study day 17, listed as G-026887
[15] = study day 21, individual animals, listed as G-026887
[16] = study day 21, listed as G-026887

OCCn1cc(-c2ccc3c(c2)CC/C3=N\O)c(-c2ccncc2)n1 [GDC-0879, 2-{4-[(1E)-1-(hydroxyimino)-2,3-dihydro-1H-inden-5-yl]-3-(pyridine-4-yl)-1H-pyrazol-1-yl}ethan-1-ol]
Venus-tagged C-RAF membrane translocation [1]: co-localizes with CFP-KRAS on the plasma membrane
blocking wildtype RAF signaling / selectivity (pERK induction in response to EGF) [2]: can more efficiently block wildtype RAF signaling
ERK1/2 phosphorylation in tumors [3]: down-regulated ERK1/2 phosphorylation
Survival time ([4]; individual animals, listed as G-026887): >22 days (6×) and >21 days (14×)
Absolute body weight, Median ([4]; study day 0): 27.5 g
Relative body weight, Median ([4]; study day 0): 100.0%
Absolute tumor volume: (a*b*b)/2, Median ([4]; study day 0): 117.2 mm3
Relative tumor volume, Median ([4]; study day 0): 100.0%
Relative body weight ([4]; study day 0, individual animals): 100.0%
Absolute body weight ([4]; study day 0, individual animals, listed as G-026887): 27.2 g and 26.9 g and 27.3 g and 26.1 g and 29.4 g and 24.8 g and 31.2 g (2×) and 30.2 g and 27.6 g
Relative tumor volume ([4]; study day 0): 100.0%
Absolute tumor volume: (a*b*b)/2 ([4]; study day 0, listed as G-026887): 117.2 mm3 and 121.1 mm3 and 94.1 mm3 and 137.3 mm3 and 237.3 mm3 and 62.5 mm3 and 80.2 mm3 and 123.0 mm3 and 111.6 mm3 and 74.4 mm3 (2×) and 219.4 mm3 and 55.3 mm3 and 150.4 mm3 and 130.7 mm3
Absolute body weight, Median ([4]; study day 3): 27.2 g
Relative body weight, Median ([4]; study day 3): 97.9%
Absolute tumor volume: (a*b*b)/2, Median ([4]; study day 3): 236.3 mm3
Relative tumor volume, Median ([4]; study day 3): 211.7%
Absolute body weight [4, 5]: 26.8 g and 27.2 g and 26.7 g and 25.6 g and 27.9 g and 24.7 g and 29.4 g and 29.2 g and 27.1 g and 29.6 g
Relative body weight [4, 5]: 94.9% (2×) and 98.5% and 101.1% and 97.8% and 98.1% and 99.6% and 94.2% and 96.7% and 98.2%
Absolute tumor volume: (a*b*b)/2 [4, 6]: 265.6 mm3 and 166.6 mm3 and 188.5 mm3 and 239.1 mm3 and 546.2 mm3 and 176.4 mm3 and 210.9 mm3 and 268.8 mm3 and 236.3 mm3 and 156.8 mm3 and 392.9 mm3 and 119.1 mm3 and 310.7 mm3 and 295.9 mm3 and 83.2 mm3
Relative tumor volume [4, 6]: 111.8% and 226.6% and 137.6% and 200.4% and 174.1% and 230.2% and 282.2% and 263.0% and 218.5% and 211.7% and 210.9% and 179.1% and 215.3% and 206.6% and 226.4%
Absolute body weight, Median ([4]; study day 7): 27.3 g
Relative body weight, Median ([4]; study day 7): 96.5%
Absolute tumor volume: (a*b*b)/2, Median ([4]; study day 7): 348.2 mm3
Relative tumor volume, Median ([4]; study day 7): 293.3%
Absolute body weight [4, 7]: 26.3 g (2×) and 27.4 g and 25.7 g and 27.1 g and 24.2 g and 28.9 g and 28.1 g and 27.6 g and 29.3 g
Relative body weight [4, 7]: 93.9% and 96.7% and 101.9% and 96.3% and 98.5% and 92.2% and 97.6% and 92.6% and 93.0% and 100.0%
Absolute tumor volume: (a*b*b)/2 [4, 8]: 392.9 mm3 and 325.1 mm3 and 261.6 mm3 and 445.5 mm3 and 689.1 mm3 and 289.1 mm3 and 348.2 mm3 and 344.4 mm3 and 455.1 mm3 and 253.1 mm3 and 560.0 mm3 and 216.6 mm3 and 352.5 mm3 and 383.3 mm3
Relative tumor volume [4, 8]: 152.3% and 335.2% and 268.5% and 278.0% and 324.4% and 290.4% and 462.6% and 434.2% and 280.0% and 407.8% and 340.4% and 255.3% and 391.6% and 234.4%
Absolute body weight, Median ([4]; study day 10): 27.3 g
Relative body weight, Median ([4]; study day 10): 97.9%
Absolute tumor volume: (a*b*b)/2, Median ([4]; study day 10): 406.6 mm3
Relative tumor volume, Median ([4]; study day 10): 392.5%
Absolute body weight [4, 9]: 26.7 g (2×) and 26.9 g and 25.6 g and 27.6 g and 25.3 g and 29.1 g (2×) and 28.6 g (2×)
Relative body weight [4, 9]: 91.7% and 98.2% and 100.0% and 97.8% and 98.1% and 93.9% and 102.0% and 93.3% and 96.4% and 103.6%
Absolute tumor volume: (a*b*b)/2 [4, 10]: 431.7 mm3 and 379.3 mm3 and 329.5 mm3 and 539.0 mm3 and 964.8 mm3 and 404.0 mm3 and 612.5 mm3 and 525.4 mm3 and 528.2 mm3 and 302.6 mm3 and 570.0 mm3 and 348.5 mm3 and 372.6 mm3 and 406.6 mm3
Relative tumor volume [4, 10]: 269.9% and 368.3% and 313.3% and 350.2% and 392.5% and 406.6% and 646.4% and 763.8% and 427.1% and 473.3% and 406.9% and 259.8% and 630.2% and 247.8%
Absolute body weight, Median ([4]; study day 14): 28.6 g
Relative body weight, Median ([4]; study day 14): 99.5%
Absolute tumor volume: (a*b*b)/2, Median ([4]; study day 14): 578.8 mm3
Relative tumor volume, Median ([4]; study day 14): 580.3%
Absolute body weight [4, 11]: 26.8 g and 27.2 g and 28.2 g and 25.5 g and 29.1 g and 25.8 g and 29.4 g and 30.2 g and 28.9 g and 30.3 g
Relative body weight [4, 11]: 97.1% and 98.5% and 101.1% and 103.3% and 97.7% and 99.0% and 104.0% and 94.2% and 100.0% and 104.7%
Absolute tumor volume: (a*b*b)/2 [4, 12]: 578.8 mm3 and 655.5 mm3 and 545.9 mm3 and 574.3 mm3 and 1411.2 mm3 and 581.0 mm3 and 1115.4 mm3 and 951.3 mm3 and 891.1 mm3 and 318.2 mm3 and 597.5 mm3 and 390.2 mm3 and 510.0 mm3 and 499.4 mm3
Relative tumor volume [4, 12]: 620.2% and 493.8% and 541.3% and 580.3% and 418.3% and 594.7% and 929.7% and 1390.9% and 773.4% and 798.5% and 427.9% and 272.4% and 705.6% and 339.1%
Absolute body weight, Median ([4]; study day 17): 28.8 g
Relative body weight, Median ([4]; study day 17): 100.8%
Absolute tumor volume: (a*b*b)/2, Median ([4]; study day 17): 742.6 mm3
Relative tumor volume, Median ([4]; study day 17): 719.8%
Absolute body weight [4, 13]: 27.2 g and 27.6 g and 28.5 g and 25.8 g (2×) and 29.5 g (2×) and 30.6 g and 29.0 g and 30.7 g
Relative body weight [4, 13]: 98.4% and 100.0% and 102.6% and 104.4% and 98.9% and 100.3% and 104.0% and 94.6% and 101.3% and 105.1%
Absolute tumor volume: (a*b*b)/2 [4, 14]: 705.7 mm3 and 742.6 mm3 and 701.1 mm3 and 841.5 mm3 and 1708.0 mm3 and 642.0 mm3 and 1229.4 mm3 and 1327.1 mm3 and 1247.1 mm3 and 426.5 mm3 and 778.8 mm3 and 520.5 mm3 and 606.4 mm3 and 758.4 mm3
Relative tumor volume [4, 14]: 860.5% and 602.1% and 613.3% and 745.2% and 612.8% and 719.8% and 1027.1% and 1533.1% and 1078.9% and 1117.5% and 573.5% and 355.0% and 941.4% and 403.2%
Absolute body weight, Median ([4]; study day 21): 29.0 g
Relative body weight, Median ([4]; study day 21): 103.5%
Absolute tumor volume: (a*b*b)/2, Median ([4]; study day 21): 958.8 mm3
Relative tumor volume, Median ([4]; study day 21): 826.5%
Absolute body weight [4, 15]: 28.6 g and 27.5 g and 29.3 g and 26.9 g and 31.1 g and 26.6 g and 30.6 g and 31.0 g and 28.7 g and 31.6 g
Relative body weight [4, 15]: 101.3% and 105.1% and 102.2% and 107.3% (2×) and 103.1% and 105.8% and 98.1% and 102.6% and 104.0%
Absolute tumor volume: (a*b*b)/2 [4, 16]: 893.3 mm3 and 1083.3 mm3 and 715.5 mm3 and 1030.4 mm3 and 1961.1 mm3 and 772.8 mm3 and 1472.3 mm3 and 1618.7 mm3 and 1461.9 mm3 and 550.0 mm3 and 958.8 mm3 and 609.2 mm3 and 712.9 mm3 and 874.7 mm3
Relative tumor volume [4, 16]: 1511.3% and 762.1% and 894.7% and 760.5% and 750.4% and 826.5% and 1236.5% and 1836.0% and 1316.0% and 1309.9% and 739.6% and 437.1% and 1101.7% and 474.0%
